Assay results: patent US9561228B2 (Celgene Avilomics Research, Inc., priority 2013, dated 2017)

What was measured:
[1] = tested on: HT-29 cells (colorectal adenocarcinoma); assay: Inhibition of cancer cell proliferation, HT-29 (CellTiterGlo, 72 hours); assay type: cell-based; settings: Homo sapiens
Procedure, shortened: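 Proliferation over 72 h at 37° C was read by CellTiterGlo luminescence, translated to cell counts with a cell-density standard curve (390–50,000 cells). Compound added as 3-fold dilutions from a 5,000 nM two-fold stock to 3000 seeded HT-29 cells; GI50 from percent inhibition relative to untreated wells.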

[2] = tested on: A375 cells (malignant melanoma); assay: Inhibition of cancer cell proliferation, A375 (CellTiterGlo, 72 hours); assay type: cell-based; settings: Homo sapiens, A-375
Description: Measurement of Inhibition of Cancer Cell Proliferation (A375/Malignant Melanoma)
The following protocol used an A375 cell line, which cell line is a model for malignant melanoma. A375 cells were split and 3000 cells in […] of growth medium were added per well of a flat-bottom 96-well plate. A two-fold test compound solution in serum-free DMEM was made, starting at 5,000 nM. Then, 3-fold serial dilutions were made across the plate from well 1 to well 11. Well 12, the last well in a row on the plate, was left as untreated control. 100 μl compound solutions were then transferred to the wells, so the total volume of media was 200 μl per well. Plates were returned to a 37° C. incubator, and the cells were cultured for 72 hours. To measure cell proliferation after 72 hours, media was discarded from the plates, 50 μl/well of fresh medium was added, and 50 μl CellTiterGlo solution was added (Promega Cat#G7573). The plate was covered with a dark lid and incubated for 10 min. A white sealing tape was applied to the bottom of the plate, and the plate was read in a luminescence plate reader. […] 50 μl CellTiterGlo was added per well, and the plate was read in a luminescence plate reader after 10 min. The reading was plotted vs. cell number to generate a standard curve and the equation of the curve fit. The compound-treated sample luminescence readings were converted to cell numbers using the curve-fit equation. The percent of inhibition, using untreated control as 100% growth, was then calculated. GI50 was then calculated by GraphPad Prism.

[3] = tested on: ERK1/2 phosphorylation of p90RSK in HT29 cells; assay: pRSK MSD Assay in HT29 cells; assay type: cell-based; settings: Homo sapiens, HT-29, read-out: ERK1/ERK2 PRSK MSD HT29 EC50
Procedure, shortened: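 Phospho-RSK level, read by electrochemiluminescence on RSK-antibody-coated MSD plates with a phospho-RSK/Sulfo-tag detection pair, reports cellular ERK1/2 activity. HT29 cells, kept overnight in 0.1% FBS medium, were exposed to compound for 120 min at 37° C before lysis.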

MEK1 activated ERK1 = biological target: T1, MEK1 activated ERK1 (Homo sapiens, UniProt P27361); assay: Omnia continuous-read kinase assay for potency against MEK1 activated ERK1; assay type: biochemical; settings: MEK1 activated ERK1, ATP at KM; read-out: ERK1 Omnia WT ATP KM IC50
T1 construct: purchased Millipore (Billerica, Mass.) 14-439-K
Procedure, shortened: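 Apparent IC50 came from initial reaction slopes (RFU vs time) plotted against log inhibitor with a variable-slope fit. Reactions were started with ERK1 (4 nM final) added to 50 μM ATP, roughly at its appKM, and 10 μM Sox-conjugated ST17 peptide in 20 mM Tris pH 7.5, 5 mM MgCl2. Fluorescence was monitored every 71 seconds.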

T1 sequence (P27361 whole entry): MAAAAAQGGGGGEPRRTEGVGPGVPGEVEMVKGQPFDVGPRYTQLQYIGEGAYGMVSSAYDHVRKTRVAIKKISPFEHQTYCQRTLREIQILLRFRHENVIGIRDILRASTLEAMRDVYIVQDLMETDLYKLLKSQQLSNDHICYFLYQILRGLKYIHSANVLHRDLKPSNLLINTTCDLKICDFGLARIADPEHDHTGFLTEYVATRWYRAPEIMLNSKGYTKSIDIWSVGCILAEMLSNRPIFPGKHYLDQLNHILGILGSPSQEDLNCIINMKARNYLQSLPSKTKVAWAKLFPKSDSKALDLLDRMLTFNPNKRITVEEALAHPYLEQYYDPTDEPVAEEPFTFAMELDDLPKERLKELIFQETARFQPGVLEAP

Compound	GI50 [1]	GI50 [2]	EC50 [3]	IC50 (MEK1 activated ERK1)
C=CC(=O)Nc1cc(C)ccc1Nc1nc(N[C@H]2CCCN(C(=O)CC)C2)ncc1C(F)(F)F [Compound I-41, (S)—N-(5-Methyl-2-((2-((1-propionylpiperidin-3-yl)amino)-5-(trifluoromethyl)pyrimidin-4-yl)amino)phenyl)acrylamide]	< 100 nM	< 100 nM		
C=C(C)S(=O)(=O)Nc1ccccc1Nc1nc(N[C@H]2CCCN(C(=O)CO)C2)ncc1C(F)(F)F [Compound I-46, (S)—N-(2-((2-((1-(2-Hydroxyacetyl)piperidin-3-yl)amino)-5-(trifluoromethyl)pyrimidin-4-yl)amino)phenyl)prop-1-ene-2-sulfonamide]	501 to 999 nM	501 to 999 nM	501 to 999 nM	
C=CC(=O)Nc1ccccc1Nc1nc(Nc2cc(C(=O)NC)c(F)cc2C)ncc1Cl [Compound I-231, 5-((4-((2-acrylamidophenyl)amino)-5-chloropyrimidin-2-yl)amino)-2-fluoro-N,4-dimethylbenzamide]	< 100 nM	< 100 nM	101 to 500 nM	101 to 500 nM
C=CC(=O)Nc1cc(C)ccc1Nc1nc(Nc2cc(C(=O)NC)c(F)cc2C)ncc1Cl [Compound I-233, 5-((4-((2-acrylamido-4-methylphenyl)amino)-5-chloropyrimidin-2-yl)amino)-2-fluoro-N,4-dimethylbenzamide]	101 to 500 nM	101 to 500 nM	101 to 500 nM	101 to 500 nM
C=CC(=O)Nc1ccccc1Nc1nc(N[C@H]2CCCN(C(N)=O)C2)ncc1C(F)(F)F [Compound I-18, (S)-3-((4-((2-Acrylamidophenyl)amino)-5-(trifluoromethyl)pyrimidin-2-yl)amino)piperidine-1-carboxamide]	101 to 500 nM	101 to 500 nM	101 to 500 nM	
C/C=C/S(=O)(=O)Nc1cc(F)ccc1Nc1nc(N[C@H]2CCCN(C(=O)CO)C2)ncc1C(F)(F)F [Compound I-48, (S,E)-N-(5-Fluoro-2-((2-((1-(2-hydroxyacetyl)piperidin-3-yl)amino)-5-(trifluoromethyl)pyrimidin-4-yl)amino)phenyl)prop-1-ene-1-sulfonamide]	> 1000 nM	> 1000 nM		
C=CC(=O)Nc1cc(C)ccc1Nc1nc(Nc2ccnc(OC)c2)ncc1Cl [Compound I-235, N-(2-((5-chloro-2-((2-methoxypyridin-4-yl)amino)pyrimidin-4-yl)amino)-5-methylphenyl)acrylamide]	< 100 nM	< 100 nM	< 100 nM	101 to 500 nM
CCC(=O)Nc1ccccc1Nc1nc(N[C@H]2CCCN(C(C)=O)C2)ncc1C(F)(F)F [Compound I-317, (S)—N-(2-((2-((1-acetylpiperidin-3-yl)amino)-5-(trifluoromethyl)pyrimidin-4-yl)amino)phenyl)propionamide]	< 100 nM	< 100 nM	> 1000 nM	
C=CC(=O)Nc1ccccc1Nc1nc(Nc2cc(C(=O)NOC)ccc2C)ncc1Cl [Compound I-191, 3-((4-((2-acrylamidophenyl)amino)-5-chloropyrimidin-2-yl)amino)-N-methoxy-4-methylbenzamide]	< 100 nM	< 100 nM	101 to 500 nM	
CCC(=O)Nc1ccccc1Nc1nc(N[C@H]2CCCN(C(=O)CO)C2)ncc1C(F)(F)F [Compound I-318, (S)—N-(2-((2-((1-(2-hydroxyacetyl)piperidin-3-yl)amino)-5-(trifluoromethyl)pyrimidin-4-yl)amino)phenyl)propionamide]	101 to 500 nM	< 100 nM	501 to 999 nM	
C=CC(=O)Nc1ccccc1Nc1nc(Nc2cc(C(N)=O)ccc2OC)ncc1C(F)(F)F [Compound I-70, 3-((4-((2-Acrylamidophenyl)amino)-5-(trifluoromethyl)pyrimidin-2-yl)amino)-4-methoxybenzamide]	< 100 nM	< 100 nM	< 100 nM	
C=CC(=O)Nc1cc(C)ccc1Nc1nc(N[C@H]2CCCN(C(=O)CN)C2)ncc1C(F)(F)F [Compound I-42, (S)—N-(2-((2-((1-(2-Aminoacetyl)piperidin-3-yl)amino)-5-(trifluoromethyl)pyrimidin-4-yl)amino)-5-methylphenyl)acrylamide]	> 1000 nM	> 1000 nM	101 to 500 nM	
C=CC(=O)Nc1ccccc1Nc1nc(N[C@H]2CCCN(C(=O)CC)C2)ncc1Cl [Compound I-131, (S)—N-(2-((5-chloro-2-((1-propionylpiperidin-3-yl)amino)pyrimidin-4-yl)amino)phenyl)acrylamide]	< 100 nM	< 100 nM	< 100 nM	
C=C(C)S(=O)(=O)Nc1cc(C)ccc1Nc1nc(N[C@H]2CCCN(C(=O)CO)C2)ncc1C(F)(F)F [Compound I-47, (S)—N-(2-((2-((1-(2-Hydroxyacetyl)piperidin-3-yl)amino)-5-(trifluoromethyl)pyrimidin-4-yl)amino)-5-methylphenyl)prop-1-ene-2-sulfonamide]	101 to 500 nM	< 100 nM	101 to 500 nM	
CN(C)CCC(=O)Nc1ccccc1Nc1nc(N[C@H]2CCCN(C(=O)CO)C2)ncc1C(F)(F)F [Compound I-276, (S)-3-(dimethylamino)-N-(2-((2-((1-(2-hydroxyacetyl)piperidin-3-yl)amino)-5-(trifluoromethyl)pyrimidin-4-yl)amino)phenyl)propanamide]	101 to 500 nM	> 1000 nM	> 1000 nM	
C=CC(=O)Nc1ccccc1Nc1nc(NC2CCOCC2)ncc1Cl [Compound I-108, N-(2-((5-chloro-2-((tetrahydro-2H-pyran-4-yl)amino)pyrimidin-4-yl)amino)phenyl)acrylamide]	< 100 nM	101 to 500 nM		
C=CC(=O)Nc1cc(C)ccc1Nc1nc(Nc2cc(C(N)=O)ccc2C)ncc1Cl [Compound I-229, 3-((4-((2-acrylamido-4-methylphenyl)amino)-5-chloropyrimidin-2-yl)amino)-4-methylbenzamide]	< 100 nM	< 100 nM	101 to 500 nM	
CC(C)S(=O)(=O)c1ccccc1Nc1nc(N[C@H]2CCCN(C(=O)CO)C2)ncc1C(F)(F)F [Compound I-310, (S)-2-hydroxy-1-(3-((4-((2-(isopropylsulfonyl)phenyl)amino)-5-(trifluoromethyl)pyrimidin-2-yl)amino)piperidin-1-yl)ethanone]	< 100 nM	< 100 nM	501 to 999 nM	
NC(=O)c1ccccc1Nc1nc(N[C@H]2CCCN(C(=O)CO)C2)ncc1C(F)(F)F [Compound I-307, (S)-2-((2-((1-(2-hydroxyacetyl)piperidin-3-yl)amino)-5-(trifluoromethyl)pyrimidin-4-yl)amino)benzamide]	101 to 500 nM	< 100 nM	> 1000 nM	
C=CC(=O)Nc1ccccc1Nc1nc(NC2CCC(=O)CC2)ncc1C(F)(F)F [Compound I-23, N-(2-((2-((4-Oxocyclohexyl)amino)-5-(trifluoromethyl)pyrimidin-4-yl)amino)phenyl)acrylamide]	< 100 nM	101 to 500 nM		
C=CC(=O)Nc1ccc(C)cc1Nc1nc(N[C@H]2CCCN(C(=O)CO)C2)ncc1C(F)(F)F [Compound I-37, (S)—N-(2-((2-((1-(2-hydroxyacetyl)piperidin-3-yl)amino)-5-(trifluoromethyl)pyrimidin-4-yl)amino)-4-methylphenyl)acrylamide]	< 100 nM	< 100 nM	< 100 nM	
C=CC(=O)Nc1ccccc1Nc1nc(N[C@H]2CCCN(C(=O)[C@@H](C)O)C2)ncc1Cl [Compound I-134, N-(2-((5-chloro-2-(((S)-1-((R)-2-hydroxypropanoyl)piperidin-3-yl)amino)pyrimidin-4-yl)amino)phenyl)acrylamide]	< 100 nM	< 100 nM	101 to 500 nM	
C=CC(=O)Nc1cc(C)ccc1Nc1nc(NC2CCC(=O)CC2)ncc1C(F)(F)F [Compound I-38, N-(5-Methyl-2-((2-((4-oxocyclohexyl)amino)-5-(trifluoromethyl)pyrimidin-4-yl)amino)phenyl)acrylamide]	501 to 999 nM	101 to 500 nM	> 1000 nM	
